Experimental data reported in PubChem BioAssay (NCI).
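Cultured in 96-well plates, cells were exposed to test compound for 48 hours across five concentrations. Here, GI50 denotes the concentration required for 50% inhibition of growth. Definition used: TGI = concentration required for complete inhibition of growth.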

Assays:
Assay in all cases: growth of human tumour cells (NCI), 48 h
[1] = tested on: 786-0 renal
[2] = tested on: A549 NSCLC
[3] = tested on: ACHN renal
[4] = tested on: BT-549 breast
[5] = tested on: CAKI-1 renal
[6] = tested on: COLO 205 colon
[7] = tested on: DU-145 prostate
[8] = tested on: EKVX NSCLC
[9] = tested on: HCC-2998 colon
[10] = tested on: HCT-116 colon
[11] = tested on: HCT-15 colon
[12] = tested on: HOP-62 NSCLC
[13] = tested on: HS 578T breast
[14] = tested on: IGROV1 ovarian
[15] = tested on: KM12 colon
[16] = tested on: LOX IMVI melanoma
[17] = tested on: M14 melanoma
[18] = tested on: MALME-3M melanoma
[19] = tested on: MCF7 breast
[20] = tested on: MDA-MB-231 breast
[21] = tested on: MDA-N
[22] = tested on: NCI-H226 lung
[23] = tested on: NCI-H23 lung
[24] = tested on: NCI-H460 lung
[25] = tested on: NCI-H522 lung
[26] = tested on: NCI/ADR-RES ovarian
[27] = tested on: OVCAR-3 ovarian
[28] = tested on: OVCAR-5 ovarian
[29] = tested on: PC-3 prostate
[30] = tested on: RXF 393 renal
[31] = tested on: SF-268 CNS
[32] = tested on: SF-295 CNS
[33] = tested on: SF-539 CNS
[34] = tested on: SK-MEL-5 melanoma
[35] = tested on: SK-OV-3 ovarian
[36] = tested on: SNB-19 CNS
[37] = tested on: TK-10 renal
[38] = tested on: UACC-257 melanoma
[39] = tested on: UACC-62 melanoma
[40] = tested on: UO-31 renal
[41] = tested on: A498 renal
[42] = tested on: CCRF-CEM leukemia
[43] = tested on: HL-60(TB) leukemia
[44] = tested on: HOP-92 NSCLC
[45] = tested on: HT29 colon
[46] = tested on: K-562 leukemia
[47] = tested on: MDA-MB-435
[48] = tested on: MOLT-4 leukemia
[49] = tested on: OVCAR-4 ovarian
[50] = tested on: OVCAR-8 ovarian
[51] = tested on: RPMI-8226 leukemia
[52] = tested on: SK-MEL-2 melanoma
[53] = tested on: SK-MEL-28 melanoma
[54] = tested on: SN12C renal
[55] = tested on: SNB-75 CNS
[56] = tested on: SR leukemia
[57] = tested on: SW-620 colon
[58] = tested on: T-47D breast
[59] = tested on: U251 CNS

SMILES: NC(N)=NCCC(O)(P(=O)(O)O)P(=O)(O)O
- TGI [1]: > 100 µM
- TGI [2]: > 100 µM
- TGI [3]: > 100 µM
- TGI [4]: > 100 µM
- TGI [5]: > 100 µM
- TGI [6]: > 100 µM
- TGI [7]: > 100 µM
- TGI [8]: > 100 µM
- TGI [9]: > 100 µM
- TGI [10]: > 100 µM
- TGI [11]: > 100 µM
- TGI [12]: > 100 µM
- TGI [13]: 57.4 µM
- TGI [14]: > 100 µM
- TGI [15]: > 100 µM
- TGI [16]: > 100 µM
- TGI [17]: > 100 µM
- TGI [18]: > 100 µM
- TGI [19]: > 100 µM
- TGI [20]: > 100 µM
- TGI [21]: > 100 µM
- TGI [22]: > 100 µM
- TGI [23]: > 100 µM
- TGI [24]: > 100 µM
- TGI [25]: > 100 µM
- TGI [26]: > 100 µM
- TGI [27]: > 100 µM
- TGI [28]: > 100 µM
- TGI [29]: > 100 µM
- TGI [30]: > 100 µM
- TGI [31]: > 100 µM
- TGI [32]: > 100 µM
- TGI [33]: > 100 µM
- TGI [34]: > 100 µM
- TGI [35]: > 100 µM
- TGI [36]: > 100 µM
- TGI [37]: > 100 µM
- TGI [38]: > 100 µM
- TGI [39]: > 100 µM
- TGI [40]: > 100 µM

SMILES: COc1ccc2c(-c3ccnc(Nc4cccc(OC(F)(F)F)c4)n3)cnn2n1
- GI50 [1]: 1.72 µM
- TGI [1]: 5.48 µM
- GI50 [41]: 0.999 µM
- TGI [41]: 10.6 µM
- GI50 [2]: 1.82 µM
- TGI [2]: 5.42 µM
- GI50 [3]: 1.8 µM
- TGI [3]: > 25 µM
- GI50 [4]: 1.48 µM
- TGI [4]: > 25 µM
- GI50 [5]: 0.877 µM
- TGI [5]: > 9.77 µM
- GI50 [42]: 1.09 µM
- TGI [42]: > 25 µM
- GI50 [6]: 1.3 µM
- TGI [6]: > 19.9 µM
- GI50 [7]: 1.35 µM
- TGI [7]: 17.6 µM
- GI50 [8]: 2.87 µM
- TGI [8]: > 25 µM
- GI50 [9]: 2.14 µM
- TGI [9]: 8.82 µM
- GI50 [10]: 1.03 µM
- TGI [10]: 3.96 µM
- GI50 [11]: 1.03 µM
- TGI [11]: > 23 µM
- GI50 [43]: 1.07 µM
- TGI [43]: > 25 µM
- GI50 [12]: 1.11 µM
- TGI [12]: > 15.9 µM
- GI50 [44]: 0.801 µM
- TGI [44]: 7.11 µM
- GI50 [13]: 0.835 µM
- TGI [13]: > 9.95 µM
- GI50 [45]: 0.912 µM
- TGI [45]: 3.06 µM
- GI50 [14]: 2.39 µM
- TGI [14]: > 12.5 µM
- GI50 [46]: 0.42 µM
- TGI [46]: > 25 µM
- GI50 [15]: 0.772 µM
- TGI [15]: 3.95 µM
- GI50 [16]: 1.02 µM
- TGI [16]: 6.47 µM
- GI50 [17]: 1.26 µM
- TGI [17]: > 12.9 µM
- GI50 [18]: 5.43 µM
- TGI [18]: > 25 µM
- GI50 [19]: 1.07 µM
- TGI [19]: 6.15 µM
- GI50 [20]: 3.63 µM
- TGI [20]: > 25 µM
- GI50 [47]: 0.144 µM
- TGI [47]: 0.692 µM
- GI50 [48]: 2.23 µM
- TGI [48]: > 25 µM
- GI50 [22]: > 10.3 µM
- TGI [22]: > 25 µM
- GI50 [23]: 1.2 µM
- TGI [23]: 7.41 µM
- GI50 [24]: 1.06 µM
- TGI [24]: 4.79 µM
- GI50 [25]: 0.366 µM
- TGI [25]: 1.77 µM
- GI50 [26]: 0.73 µM
- TGI [26]: 6.74 µM
- GI50 [27]: 0.661 µM
- TGI [27]: 1.68 µM
- GI50 [49]: 3.32 µM
- TGI [49]: 12.5 µM
- GI50 [28]: 3.53 µM
- TGI [28]: > 21.1 µM
- GI50 [50]: 1.84 µM
- TGI [50]: 10.5 µM
- GI50 [29]: 0.987 µM
- TGI [29]: > 25 µM
- GI50 [51]: 1.77 µM
- TGI [51]: > 21 µM
- GI50 [30]: 1.74 µM
- TGI [30]: 6.66 µM
- GI50 [31]: 1.53 µM
- TGI [31]: 6.53 µM
- GI50 [32]: 0.683 µM
- TGI [32]: > 14.8 µM
- GI50 [33]: 0.909 µM
- TGI [33]: 3.52 µM
- GI50 [52]: 1.39 µM
- TGI [52]: 17.1 µM
- GI50 [53]: 3.47 µM
- TGI [53]: > 25 µM
- GI50 [34]: 1.1 µM
- TGI [34]: 9.56 µM
- GI50 [35]: 1.19 µM
- TGI [35]: 6.1 µM
- GI50 [54]: 1.75 µM
- TGI [54]: > 18.3 µM
- GI50 [36]: 1.67 µM
- TGI [36]: > 23.2 µM
- GI50 [55]: 0.806 µM
- TGI [55]: 4.88 µM
- GI50 [56]: 0.904 µM
- TGI [56]: > 25 µM
- GI50 [57]: 0.856 µM
- TGI [57]: 4.84 µM
- GI50 [58]: 1.71 µM
- TGI [58]: 6.56 µM
- GI50 [37]: 4.05 µM
- TGI [37]: 12.2 µM
- GI50 [59]: 1.08 µM
- TGI [59]: 5.18 µM
- GI50 [38]: 1.55 µM
- TGI [38]: > 25 µM
- GI50 [39]: 0.863 µM
- TGI [39]: 6.94 µM
- GI50 [40]: 2.55 µM
- TGI [40]: > 12.3 µM
